Tests used:
[1] = Chronic vincristine toxicity in mice, with and without Cronassial; assay type: in vivo, Male Swiss Schneider mice; conditions: for SURVIVORS No.at 30 d / survival at 720 h: chronic, host SN; for survival at 720 h: ip, 200 mg/kg, read-out: SURVIVAL % at 30 d
Procedure: (§1) Toxicity acute and chronic. Male Swiss Schneider mice with a body weight of 25-30g were used for these experiments. Mice were usually kept in groups of not more than 8 in standard cages. Food and water were supplied ad libidum. The animals were kept in experimental rooms under closely controlled conditions. They were weighed daily. For acute vincristine toxicity in chicks, 48 hour old SPF chicks were used.
(§2) Vincristine. A standard vial of 'Oncovin' (Eli Lilly Co.) containing 1 mg of vincristine was used. It was made up with the appropriate volume of diluting fluid to give the final concentration required to inject 0.1 ml/10 g body weight.
(§3) Cronassial®. A solution of this substance, which is a mixture of four gangliosides, was prepared by the addition of a volume of sterile distilled water sufficient to give a concentration of 200 mg/kg in a volume of 0.2 ml. This dose was given to mice of approximately 20g.
Giving daily injections of vincristine of 0.8 mg/kg for 5 days was close to the LD₅₀. By giving 200 mg/kg Cronassial® at the same time as the vincristine, the number of survivors at 30 days was increased to 100% Almost identical results were obtained by using 1 mg/kg vincristine, even though the drugs were administered for only 4 days. However the total dosage of vincristine administered in the two experiments (4 mg/kg) was identical. Increasing the cumulative dose of vincristine from 4 to 5 mg/kg increased the mortality of the mice to 100%. With this overwhelming toxicity, there was little or no protection offered by the Cronassial®.

[2] = Acute vincristine toxicity in mice, with and without Cronassial; assay type: in vivo, Male Swiss Schneider mice
Procedure: as §1, §2, §3

[3] = Acute vincristine toxicity in chicks, with and without Cronassial; assay type: in vivo, 48 hour old SPF chicks; conditions: for SURVIVORS AT 24hrs / SURVIVORS AT 28hrs / SURVIVORS AT 52hrs: acute, SPF 48hr chick, in combination CRON 200 mg/kg at same time
Procedure: as §1
In contrast,of those chicks which received 200 mg/kg Cronassial® at the same time as the vincristine, only 2/5 had died at 24 hours but only 1 remained alive at 28 hours.
With 4 mg/kg vincristine, 4/5 chicks survived for 24 hours but only 1/5 survived for 28 hours. The chicks which additionally, received 200 mg/kg Cronassial® survived better with 3/5 surviving to 28 hours.

sarcoma S180 = experiment: Antitumour activity against sarcoma S180 (tumour weight); assay type: in vivo, Male Swiss Schneider mice; conditions: S180, host SN; VCR 0.5 mg/kg ip days 1-6; in combination CRON 200 mg/kg ip days 1-6, 6hrs before VCR; CMC-controls 1.05
Description: (§4) Antitumour effects. Male Swiss Schneider mice of 27g body weight were used for the sarcoma S180 experiments: female C₅₇Bl mice of 20g body weight were used for the B16 melanoma experiments; male BDF₁ mice of 30g body weight were used for the L1210 leukaemia experiments; and C₅₇Bl mice of 20g body weight were used for the Lewis lung experiments.
Sarcoma S180. This tumour has been transplanted in the same strain of mouse for more than 10 years.
Transplantation was done by subcutaneous inoculation of 0.1 ml of a tumour mash made by finely mincing viable tumour tissue and passing it repeatedly through a 26 gauge needle into a sterile Petri dish. 0.1 ml of penicillin (20,000 m/ml) and streptomycin (20,000 m/ml) were added to the mash, as well as neomycin (5 mgs).

melanoma B16 = experiment: Antitumour activity against melanoma B16 (tumour weight); assay type: in vivo, female C₅₇Bl mice; conditions: B16, host C5781; VCR 0.5 mg/kg ip days 1-4,7-11; in combination CRON 200 mg/kg, 6hrs before VCR; CMC-controls 2.33
Procedure: as §4
Melanoma B16. This tumour was prepared for inoculation in a manner identical to that used for the S180 sarcoma.

leukaemia L1210 = experiment: Antitumour activity against leukaemia L1210 (survival); assay type: in vivo, BDF₁ mice; conditions: L1210, host BDF1; VCR 1.0 mg/kg ip days 1-3; in combination CRON 200 mg/kg ip days 1-3, same time as VCR; CMC-controls 8.0
Procedure: Antitumour effects. Male Swiss Schneider mice of 27g body weight were used for the sarcoma S180 experiments: female C₅₇Bl mice of 20g body weight were used for the B16 melanoma experiments; […]; and C₅₇Bl mice of 20g body weight were used for the Lewis lung experiments.
L1210. Spleens were removed from animals 7 days after inoculation of L1210 cells and these spleens were finely minced with 1:100 isotonic saline. 0.1 ml of this spleen and leukaemia L1210 cell suspension was then injected subcutaneously into the flank of each BDF₁.

What does the source list for `CC[C@]1(O)C[C@H]2CN(CCc3c([nH]c4ccccc34)[C@@](C(=O)OC)(c3cc4c(cc3OC)N(C=O)[C@H]3[C@@](O)(C(=O)OC)[C@H](OC(C)=O)[C@]5(CC)C=CCN6CC[C@]43[C@@H]65)C2)C1` [VCR, vincristine]?
SURVIVORS No.at 30 d ([1]; VCR 0.8 mg/kg ip days 1-5, in combination CRON 200 mg/kg ip days 1-5, 6hrs before VCR): 5/8; SURVIVORS No.at 30 d ([1]; VCR 1.0 mg/kg ip days 1-4, in combination CRON 200 mg/kg ip days 1-4, 6hrs before VCR): 3/8; SURVIVORS No.at 30 d ([1]; VCR 1.0 mg/kg ip days 1-5, in combination CRON 200 mg/kg ip days 1-5, 6hrs before VCR): 0/6; survival at 720 h ([1]; mouse, in vivo, VCR 0.8 mg/kg ip days 1-5, in combination CRON 200 mg/kg ip days 1-5, 6hrs before VCR): 62.5%; survival at 720 h ([1]; mouse, in vivo, VCR 1.0 mg/kg ip days 1-4, in combination CRON 200 mg/kg ip days 1-4, 6hrs before VCR): 37.5%; survival at 720 h ([1]; mouse, in vivo, VCR 1.0 mg/kg ip days 1-5, in combination CRON 200 mg/kg ip days 1-5, 6hrs before VCR): 0%; mortality ([1]; mouse, in vivo, cumulative dose of vincristine 5 mg/kg, mice): 100%; LD50 ([1]; mouse, in vivo, daily injections of vincristine for 5 days, mice, read-out: LD₅₀): ~0.8 mg/kg; SURVIVORS No.at 30 d ([2]; acute, host SN, VCR 3.0 mg/kg iv day 1, in combination CRON 200 mg/kg ip day 1, 6hrs before VCR): 2/8; survival at 720 h ([2]; mouse, in vivo, acute, host SN, VCR 3.0 mg/kg iv day 1, in combination CRON 200 mg/kg ip day 1, 6hrs before VCR, read-out: SURVIVAL % at 30 d): 25%; mortality at 720 h ([2]; mouse, in vivo, vincristine 3.0 mg/kg, one intravenous injection, Swiss Schneider mice, in combination 200 mg/kg Cronassial 6 hours before, read-out: deaths by day 30): 75%; toxicity ([3]; 48 hour old chicks, vincristine 2 mg/kg, in combination Cronassial also given): little toxicity; chicks with no acute neurotoxic signs during the first 4 hours ([3]; 48 hour old chicks, vincristine 6 mg/kg): 3/4; dead at 24 hours ([3]; 48 hour old chicks, vincristine 6 mg/kg, in combination 200 mg/kg Cronassial at the same time): All the chicks were dead; SURVIVORS AT 24hrs ([3]; VCR 2.0 mg/kg ip day 1): 2/2; SURVIVORS AT 28hrs ([3]; VCR 2.0 mg/kg ip day 1): 2/2; SURVIVORS AT 52hrs ([3]; VCR 2.0 mg/kg ip day 1): 1/2; SURVIVORS AT 24hrs ([3]; VCR 4.0 mg/kg ip day 1): 4/5; SURVIVORS AT 28hrs ([3]; VCR 4.0 mg/kg ip day 1): 1/5; SURVIVORS AT 52hrs ([3]; VCR 4.0 mg/kg ip day 1): 1/5; SURVIVORS AT 24hrs ([3]; VCR 6.0 mg/kg ip day 1): 0/4; TUMOUR WEIGHTS MEAN (sarcoma S180): 0.64 g; TUMOUR WEIGHTS MEAN (melanoma B16): 1.46 g; Mean survival time (leukaemia L1210): 7.8 days

From patent EP0345251B1 (priority 1986, dated 1988)
